In US10168317B2, “Microfluidic device, system, and method for tracking single cells and single cell lineages” (CORNELL UNIVERSITY, priority 2012, dated 2019):
Several values for one entry are separate records, joined by “and”; a condition that tells them apart may be missing. Equal values may be shown once. Entries after “also recorded” stand apart in the source; their conditions may differ.

Assays:
[1] = system: cells; details: straight confinement microchannels; cited from earlier work
[2] = system: cell invasion; details: together with protease inhibitors; cited from earlier work
[3] = system: MDA-MB-231 cells; experiment: MUSIC device: cell invasion across subnucleus barriers (SNI), timelapse; type: cell-based, human; details: for ability to invade across subnucleus barriers / tight spaces: taxol (Paclitaxel)-treated MDA-MB-231 cells
Experimental: (§1) MDA-MB-231 cells were obtained from the NCl PS-OC and the ATCC. They were cultured in Leibovitz L-15 media (Life Technologies) supplemented with 10% fetal bovine serum (Atlanta Biologicals) and 1% Penicillin-Streptavidin (Life Technologies). K20T cells were obtained from the Giannakakou lab at Weill Cornell Medical College. They are a taxol-resistant derivative of MDA-MB-231 cells (K. M. Wiesen et al., Cancer Letters, 2007, 257, 227-235). They were cultured in L-15 media supplemented with 10% fetal bovine serum, 1% Penicillin-Streptavidin, and 15 nM paclitaxel (taxol) (Cytoskeleton, Inc). All cells were incubated at 37° C. without supplemented CO2.
Cells were loaded into the inlet reservoir regions at the ends of the microchannels and allowed to spontaneously migrate into the three-dimensionally confined channels. Devices with cells were incubated as in regular cell culture as described above. Timelapse experiments were performed once the cells were in the channels. For each experiment, devices were placed on top of a heating plate maintained at 37° C. Typical durations for timelapse experiments were around 1-2 days at a temporal resolution of 3.4 minutes. Cell tracking and measurements were performed by manual tracing via ImageJ. Data processing and analysis were performed via custom programs on MATLAB. The height of the microchannels used for all experiments with quantitative analysis was 10 μm. […] For statistical analysis, the Chi-squared test was used for probability measurements, and ANOVA statistics were used for all other measurements, unless otherwise specified. Error bars are standard error of the mean (s.e.m.). Standard DAPI staining was used for fluorescence imaging in FIG. 9. For cell viability in these devices, we found in a typical timelapse experiment of ˜23 hrs that less than 10% (5 out of 54) of the cells died while occupying the experimental field of view.
To develop an assay that can directionally focus the cell invasion program for high throughput quantitative analysis, we designed and fabricated a microfluidic device that induces serial dimensional modulation on the cell and nucleus scale (FIG. 3). We refer to this herein as a MUlti-staged Serial Invasion Channels (MUSIC) device. […] Then we incorporate a spatially tapering interface that connects the confinement channel to another even smaller channel (referred to as the subnucleus barrier (SNB)) with width smaller than the cell nucleus, which is one of the largest and stiffest organelles in the cell (P. Friedl et al., Current Opinion in Cell Biology, 2011, 23, 55-64). […] This device design in essence directs and reduces the 3-D invasion program into a 2-component process—1) the cell migrates in the x-direction while 2) necessarily altering its y-dimensions. Because the migration vector points in one direction (x) and the primary induced region of change is in the orthogonal direction (y), high throughput quantitative analysis can now be accomplished in 1-D, thus increasing the feasibility of experiments and enabling predetermined axes of interest. Furthermore, repeating patterns of the subnucleus barrier are placed along the length of the microchannel, enabling serial effects and multiple sampling of individual cells, therefore providing a way to elucidate the plasticity of mechanisms of invasion for each cell. In our experiments, we consider both 1) cell invasion in only the larger confinement channel region (referred to as LCI) and 2) invasion from the larger channel across the subnucleus barrier (referred to as SNI). Our device design incorporates two different lengths for the SNB—10 μm (SNB10) and 60 μm (SNB60), which are shorter and longer than a typical MDA-MB-231 cell, respectively.
To understand higher order effects of cell invasion, we first identified the nonlinearity in the cell displacement function during SNI. Then we segmented the process into 4 distinct phases and measured the time constants of each phase. […]

[4] = system: MDA-MB-231 cells; experiment: Single-cell lineage drug response in parallel microfluidic channels; type: cell-based, human; details: 1 nM Paclitaxel, constant treatment, day 2 and day 6, about one week
Experimental: FIG. 26 illustrates breast cancer cells treated with 1 nM Paclitaxel at day 2 (top) and day 6 (bottom) from initial treatment, as observed in one embodiment of a microfluidic device/microfluidic system of the present invention. […] The emergence of drug resistance can therefore be identified at the single-cell and single-cell lineage level, which can provide better biological resolution and can identify the onset of resistance more quickly especially if only a rare subpopulation of the bulk cells is resistant.
To move forward, we will expand these studies to distinguish the difference in drug responsivity between individual cell lineages enabled by our cell isolation technique previously described, and we will extend the time-scale of these experiments to accommodate for the emergence of drug resistance.

[5] = system: MDA-MB-231 cells; experiment: Serial micropipette: pressure-driven transit across sequential subnucleus-scaled constrictions; type: cell-based, human; details: 10 μM taxol for 1 day
Experimental: MDA-MB-231 cells were obtained from the NCl Physical-Sciences and Oncology Center. They were cultured in Leibovitz L-15 media (Life Technologies) with 10% fetal bovine serum (Atlanta Biologicals) and 1% Penicillin-Streptavidin (Life Technologies) at 37° C. without CO2.
Devices were treated with 1% bovine serum albumin (BSA) (Sigma-Aldrich) in serum-free media (L-15) for several hours before experiments in order to prevent stiction. Additionally, cells used in experiments were resuspended in serum-free media. Cells were loaded into the inlet reservoir of the device and experiments were automatically conducted as described in the design and operations section of this paper. The device was placed and kept on a heating plate set at 37° C. Videos were recorded at 500 ms per frame under a microscope, which produced the data of the experiments. Experimental analysis and cell tracking were performed using ImageJ and custom MATLAB programs. For statistical analysis, one-way ANOVA was used to determine statistical significance. Error bars on data represent standard error of the mean (s.e.m.). For taxol experiments, cells were incubated in 10 μM taxol (Cytoskeleton, Inc.) for 1 day prior to experiments. For fluorescence experiments, NucBlue (a live nucleus counterstain that is formulated from Hoechst 33342) (Life Technologies) was used and cells were incubated in the dye in complete growth media for 15 minutes.
The device consists of parallel microchannels. Each channel contains a series of microconstrictions to serve as a serial micropipette capable of deforming objects multiple times via pressure driven flow. The larger region of the channel has a width of 15 μm, which is on the order of the size of a cell. The smaller constriction region is 3.3 μm, which is smaller than the cell nucleus, thus ensuring that the cell undergoes a substantial deformation that samples a key organelle in the cell that often limits cell squeezing in physiological landscapes due to its size and stiffness. […]

[6] = system: MDA-MB-231 cells; experiment: MUSIC device: cell migration in the larger channel LC (speed, mean-squared displacement); type: cell-based, human
Experimental: as §1
Cells were loaded into the inlet reservoir regions at the ends of the microchannels and allowed to spontaneously migrate into the three-dimensionally confined channels. Devices with cells were incubated as in regular cell culture as described above. Timelapse experiments were performed once the cells were in the channels. For each experiment, devices were placed on top of a heating plate maintained at 37° C. Typical durations for timelapse experiments were around 1-2 days at a temporal resolution of 3.4 minutes. Cell tracking and measurements were performed by manual tracing via ImageJ. Data processing and analysis were performed via custom programs on MATLAB. The height of the microchannels used for all experiments with quantitative analysis was 10 μm. […] Standard DAPI staining was used for fluorescence imaging in FIG. 9. […]
To develop an assay that can directionally focus the cell invasion program for high throughput quantitative analysis, we designed and fabricated a microfluidic device that induces serial dimensional modulation on the cell and nucleus scale (FIG. 3). […] Because the migration vector points in one direction (x) and the primary induced region of change is in the orthogonal direction (y), high throughput quantitative analysis can now be accomplished in 1-D, thus increasing the feasibility of experiments and enabling predetermined axes of interest. […]

[7] = system: MDA-MB-231 metastatic breast cancer cells; experiment: Cell morphology after taxol treatment in the microfluidic device; type: cell-based, human
Text: FIGS. 29A-29B illustrate cancer cells treated with the chemotherapeutic taxol in embodiments of a microfluidic device and system of the present invention. […] FIG. 29B: This more extended morphology from taxol-treated cells after failed mitosis resembles the morphology of K20T cells, which are the taxol-resistant variant of the MDA-MB-231 cells.
FIGS. 29A-29B show cancer cells treated with the chemotherapeutic taxol in embodiments of a microfluidic device and system of the present invention. […] They also lose the ability to divide properly, resulting in an extensive blebbing phase followed by cytoskeletal recovery. After failed mitosis and recovery, the cells take on a different, more extended morphology, typically with more edges and extensions. This new morphology resembles the taxol-resistant variant of these cells. […] For timelapse stacks, 34 minutes elapsed between each frame.

| Structure (SMILES) | effect on migration rates in confinement [1] | effect on cell invasion in combination with protease inhibitors [2] | total invasion time across subnucleus barrier SNB10 ([3]; 16 µM) [h] | factor of difference in total SNI time, treated vs untreated cells ([3]; barrier 10 μm long, 16 μM taxol) | ability to invade across subnucleus barriers / tight spaces [3] | ability to invade across subnucleus barriers / tight spaces ([3]; listed as Paclitaxel) | total invasion time across subnucleus barrier SNB10 ([3]; taxol-treated MDA-MB-231 cells, 16 μM taxol (printed 1604), 10 μm long barrier, lower-bound measurement, many cells not permeated by end of experiment) [h] | total invasion time across subnucleus barrier SNB60 ([3]; taxol-treated MDA-MB-231 cells, 16 μM taxol (printed 1604), 60 μm long barrier, lower-bound measurement) [h] | viability and proliferation of single-cell lineages under drug [4] | transit time across the first constriction ([5]; 10 μm-long constriction, about 400 pa, n=26) [s] | transit times across subsequent constrictions, taxol treated vs untreated cells ([5]; constrictions 2 to 5) | cell length in the microchannel (cell size) ([5]; n=26) [μm] | factor of difference in average cell speed between treated and untreated cells ([6]; larger channel region LC, 16 μM taxol) | power-law exponent of mean-squared displacement vs. time (MSD ∝ t^x) ([6]; taxol-treated MDA-MB-231 cells in larger channel LC, n=10 cells, non-linear least squares fit) | average speed in the larger channel LC ([6]; taxol-treated MDA-MB-231 cells, 16 μM (printed 1604), 3.4 minute time interval, n=10) [μm/min] | cell morphology after failed mitosis ([7]; taxol-treated cells after failed mitosis and recovery) | cell morphology after treatment ([7]; taxol-treated cells before failed mitosis) |
| --- | --- | --- | --- | --- | --- | --- | --- | --- | --- | --- | --- | --- | --- | --- | --- | --- | --- |
| COC(=O)Nc1nc2ccc(C(=O)c3cccs3)cc2[nH]1 [Nocodazole] | migration rates are affected | – | – | – | – | – | – | – | – | – | – | – | – | – | – | – | – |
| C[C@@H](N)[C@H]1CC[C@H](C(=O)Nc2ccncc2)CC1 [Y27632] | – | synergistic effects in preventing cell invasion | – | – | – | – | – | – | – | – | – | – | – | – | – | – | – |
| CC(=O)O[C@H]1C(=O)[C@@]2(C)[C@H]([C@H](OC(=O)c3ccccc3)[C@]3(O)C[C@H](OC(=O)[C@H](O)[C@@H](NC(=O)c4ccccc4)c4ccccc4)C(C)=C1C3(C)C)[C@]1(OC(C)=O)CO[C@@H]1C[C@@H]2O [taxol, paclitaxel] | migration rates are affected | – | ≥ 22 | > 20 | reduced ability in invading across tight spaces | can no longer invade | > 20 | ≥ 22 | many cells underwent apoptosis but a select lineage continues to propagate; also recorded: many other cells in other channels underwent apoptosis after failed cell division | 550 ± 109 | transit times collapse between the two cell groups | 31±2 | ~2 | 1 and 1.014 | 0.53 | recover a more extended morphology | less extended, more rounded morphology |
